# Target: T1, human cGAS (residues 161-522) (Homo sapiens, UniProt Q8N884)
# T1 construct: Recombinantly expressed purified human cGAS (residues 161-522) was used at 25 nM; made in house
# Experiment: Malachite Green assay to measure cGAS activity
# Format: biochemical
# Details: coupled enzymatic assay, phosphate detection by Malachite Green; 25 nM cGAS, 80 μM ATP, 80 μM GTP, 100 nM ISD, 4 hour at RT
# Procedure: Compounds were tested for cGAS inhibition in a coupled enzymatic assay based on Phosphate detection by Malachite Green. Final assay conditions were 20 mM TRIS pH 7.5 (Applichem), 5 mM MgCl2 (Sigma) and 0.01% BSA (Sigma) supplemented with 80 μM ATP (Sigma), 80 μM GTP (Sigma) and 100 nM Interferon Stimulating DNA (ISD) (Microsynth). Recombinantly expressed purified human cGAS (residues 161-522) was used at 25 nM.
# All compounds were prepared as 10 mM stock solutions in DMSO and a 16 pt dilution series in DMSO with a dilution factor of 2.5 was prepared. 1 μL of DMSO dilution series was transferred to 32.3 μL reaction buffer, mixed by pipetting up/down, spun for 1 minute at 3000 rpm and was visually inspected for precipitation. 5 μL of 3-fold enzyme stock solution were transferred to an empty 384-well Black/Clear Flat Bottom Polystyrene NBS (Corning) rows 3-24. Rows 1-2 were filled with assay buffer. Plates were spun 10 seconds at 1000 rpm (164×g). 5 μL of compound intermediate dilution was added and mixed by pipetting up/down to rows 3-24. Rows 1-2 were filled with 3.1% DMSO assay buffer. Plates were spun 10 seconds at 1000 rpm (164×g). 5 μL 3-fold Nucleotide/DNA mix was added to all wells to start the reaction. Plates were spun 10 seconds at 1000 rpm (164×g) and incubated for 4 hour at room temperature (RT) in the dark. 5 μL 4 U/mL PPase (Sigma) were added to all wells. Plates spun 10 seconds at 1000 rpm (164×g). 10 μL BioMol green Solution (Enzo Life Sciences) was added to all wells. Plates spun 10 seconds at 1000 rpm (164×g) and incubated 30 minutes at RT in the dark. Absorbance data was collected 620 nm on an EnVision Multilable Reader (Perkin Elmer) and the following measurement settings were used: excitation filter photometric was 620 nm; excitation from the top; measurement height was 1 mm; number of flashes was 30; number of flashes integrated was 1.
# All plates are checked for abnormalities and outliers in the Blank Control (no protein, row 1) and the Neutral Control (no compound, row 2) are excluded using the 3*SD rule. Data was normalized to 0 and 100% by Blank and Neutral Control and each curve was fitted and judged using the 4 parameter logistic equation to determine the IC50 for cGAS inhibition.
# Table 1 provides IC50 values (μM) for cGAS inhibition obtained for particular examples of the present invention as measured by the above-described assay.
# T1 sequence (Q8N884 161-522): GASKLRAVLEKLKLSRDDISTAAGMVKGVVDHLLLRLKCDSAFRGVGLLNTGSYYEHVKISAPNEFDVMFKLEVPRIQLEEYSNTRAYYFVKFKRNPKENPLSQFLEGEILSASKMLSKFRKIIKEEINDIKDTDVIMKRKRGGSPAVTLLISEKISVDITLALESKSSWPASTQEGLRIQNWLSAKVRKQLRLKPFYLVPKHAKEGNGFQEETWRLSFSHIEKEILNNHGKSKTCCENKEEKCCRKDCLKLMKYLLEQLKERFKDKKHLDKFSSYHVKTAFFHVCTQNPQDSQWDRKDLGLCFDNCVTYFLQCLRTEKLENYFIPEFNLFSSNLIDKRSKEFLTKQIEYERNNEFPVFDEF
row,SMILES,IC50 [µM]
1,"Cc1ccc(-c2ccc(NC(=O)Cn3cncn3)c(C(=O)O)c2)c(Cl)c1 [Example 1, 4-(2-(1H-1,2,4-Triazol-1-yl)acetamido)-2′-chloro-4′-methyl-[1,1′-biphenyl]-3-carboxylic Acid]",1.83
2,"Cc1ccc(-c2ccc(NC(=O)Cc3cnc(C)[nH]c3=O)c(C(=O)O)c2)c(Cl)c1 [Example 2, 2′-Chloro-4′-methyl-4-(2-(2-methyl-6-oxo-1,6-dihydropyrimidin-5-yl)acetamido)-[1,1′-biphenyl]-3-carboxylic Acid]",2.09
3,"Cc1ccc(-c2ccc(NC(=O)CCN3CCOCC3)c(C(=O)O)c2)c(Cl)c1 [Example 3, 2′-Chloro-4′-methyl-4-(3-morpholinopropanamido)-[1,1′-biphenyl]-3-carboxylic Acid]",4.82
4,"Cc1ccc(-c2ccc(NC(=O)CN3CCOCC3)c(C(=O)O)c2)c(Cl)c1 [Example 4, 5-(2-Chloro-4-methylphenyl)-2-[(2-morpholin-4-ylacetyl)amino]benzoic Acid]",0.32
5,"Cc1ccc(-c2ccc(NC(=O)Cc3ccccc3)c(C(=O)O)c2)c(Cl)c1 [Example 5, 5-(2-Chloro-4-methylphenyl)-2-[(2-phenylacetyl)amino]benzoic Acid]",3.07
6,"Cc1ccc(-c2ccc(OCCn3ccnc3)c(C(=O)O)c2)c(Cl)c1 [Example 6, 5-(2-Chloro-4-methylphenyl)-2-(2-imidazol-1-ylethoxy)benzoic Acid]",2.8
7,"Cc1ccc(-c2ccc(OCCN3CCS(=O)(=O)CC3)c(C(=O)O)c2)c(Cl)c1 [Example 7, 5-(2-Chloro-4-methylphenyl)-2-[2-(1,1-dioxo-1,4-thiazinan-4-yl)ethoxy]benzoic Acid]",2.67
8,"Cc1ccc(-c2ccc(OCc3ccccc3)c(C(=O)O)c2)c(Cl)c1 [Example 8, 5-(2-Chloro-4-methylphenyl)-2-phenylmethoxybenzoic Acid]",4.21

# Source: US20230192631A1, “Biphenyl Derivatives” (Hoffmann-La Roche Inc., priority 2020, published 2023)
